Assay results as given in ChEMBL document CHEMBL4043232, “A mimetic of the mSin3-binding helix of NRSF/REST ameliorates abnormal pain behavior in chronic pain models” (2017).
The source made the active and inactive calls.

Key:
Mus musculus [1] = test: Antinociceptive activity in partial sciatic nerve ligation C57BL/6J mouse model of neuropathic pain assessed as reduction in peripheral morphine analgesia at 10 mg/kg, ip administered daily from day 5 to day 11 measured on day 12; type: functional, organism-based
Mus musculus [2] = test: Antinociceptive activity in intermittent psychological stress treated partial sciatic nerve ligation C57BL/6J mouse model of fibromyalgia assessed as paw withdrawal latency time at 10 mg/kg, ip measured on day 12 (reference value: 4 sec); type: functional
Mus musculus [3] = test: Antinociceptive activity in intermittent psychological stress treated partial sciatic nerve ligation C57BL/6J mouse model of fibromyalgia assessed as paw withdrawal latency time at 10 mg/kg, ip measured on day 19 (reference value: 4 sec); type: functional
Mus musculus [4] = test: Antinociceptive activity in intermittent psychological stress treated partial sciatic nerve ligation C57BL/6J mouse model of fibromyalgia assessed as reversal of thermal hyperalgesia at 10 mg/kg, ip administered daily from day 5 to day 11 measured on day 12; type: functional, organism-based
[5] = target: T1, Paired amphipathic helix protein Sin3b (Mus musculus) (UniProt Q62141); test: Inhibition of N-terminal GST-tagged mouse Sin3B PAH1 domain (28 to 107 residues) expressed in Escherichia coli BL21 (DE3) binding to NRSF/REST at 100 uM by 1H STD-NMR spectrometric analysis
T1 sequence (whole entry): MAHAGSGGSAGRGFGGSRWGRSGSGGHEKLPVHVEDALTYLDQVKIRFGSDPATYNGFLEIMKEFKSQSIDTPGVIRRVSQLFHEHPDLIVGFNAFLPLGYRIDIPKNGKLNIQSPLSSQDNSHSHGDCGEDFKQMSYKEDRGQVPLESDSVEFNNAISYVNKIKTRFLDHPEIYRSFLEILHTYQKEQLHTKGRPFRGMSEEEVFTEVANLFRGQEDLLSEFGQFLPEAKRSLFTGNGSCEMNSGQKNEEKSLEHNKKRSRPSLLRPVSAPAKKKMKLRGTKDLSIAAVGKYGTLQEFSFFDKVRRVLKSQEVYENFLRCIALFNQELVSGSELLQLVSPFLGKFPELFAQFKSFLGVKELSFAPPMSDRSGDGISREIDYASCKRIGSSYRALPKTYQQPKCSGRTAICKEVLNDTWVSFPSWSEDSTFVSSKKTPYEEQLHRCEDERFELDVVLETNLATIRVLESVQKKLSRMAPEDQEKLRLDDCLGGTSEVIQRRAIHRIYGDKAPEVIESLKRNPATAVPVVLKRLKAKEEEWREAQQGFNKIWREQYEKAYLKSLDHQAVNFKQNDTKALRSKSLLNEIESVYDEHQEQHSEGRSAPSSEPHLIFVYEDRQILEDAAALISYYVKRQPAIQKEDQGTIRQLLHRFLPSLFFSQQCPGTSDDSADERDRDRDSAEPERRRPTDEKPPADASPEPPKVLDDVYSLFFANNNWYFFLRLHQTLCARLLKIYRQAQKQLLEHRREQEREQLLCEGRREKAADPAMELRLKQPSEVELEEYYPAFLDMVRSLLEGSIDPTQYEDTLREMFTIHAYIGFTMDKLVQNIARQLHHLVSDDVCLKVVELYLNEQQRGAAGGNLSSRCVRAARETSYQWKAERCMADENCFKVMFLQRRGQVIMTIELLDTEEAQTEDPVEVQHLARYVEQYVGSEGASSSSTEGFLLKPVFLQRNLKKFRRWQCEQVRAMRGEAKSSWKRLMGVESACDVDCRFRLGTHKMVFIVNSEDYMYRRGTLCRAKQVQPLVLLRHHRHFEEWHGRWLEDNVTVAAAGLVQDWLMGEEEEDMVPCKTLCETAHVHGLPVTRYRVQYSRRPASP

Mus musculus [6] = test: Antinociceptive activity in intermittent cold stress treated partial sciatic nerve ligation C57BL/6J mouse model of fibromyalgia assessed as reversal of thermal hyperalgesia at 10 mg/kg, ip administered daily from day 5 to day 11 measured on day 12; type: functional, organism-based
Mus musculus [7] = test: Antinociceptive activity in intermittent psychological stress treated partial sciatic nerve ligation C57BL/6J mouse model of fibromyalgia assessed as paw withdrawal latency time at 10 mg/kg, ip measured on day 19 (reference value: 3 sec); type: functional
Mus musculus [8] = test: Antinociceptive activity in intermittent cold stress treated partial sciatic nerve ligation C57BL/6J mouse model of fibromyalgia assessed as reduction in central morphine analgesia at 10 mg/kg, ip administered daily from day 5 to day 11 measured on day 12; type: functional, organism-based
Mus musculus [9] = test: Antinociceptive activity in intermittent cold stress treated partial sciatic nerve ligation C57BL/6J mouse model of fibromyalgia assessed as paw withdrawal latency time at 10 mg/kg, ip measured on day 5 (reference value: 10 sec); type: functional
Mus musculus [10] = test: Antinociceptive activity in intermittent psychological stress treated partial sciatic nerve ligation C57BL/6J mouse model of fibromyalgia assessed as paw withdrawal latency time at 10 mg/kg, ip measured on day 5 (reference value: 3 sec); type: functional
Mus musculus [11] = test: Antinociceptive activity in intermittent psychological stress treated partial sciatic nerve ligation C57BL/6J mouse model of fibromyalgia assessed as paw withdrawal latency time at 10 mg/kg, ip measured on day 12 (reference value: 3 sec); type: functional
[12] = target: T1, Paired amphipathic helix protein Sin3b (Mus musculus); test: Binding affinity to N-terminal GST-tagged mouse Sin3B PAH1 domain (28 to 107 residues) expressed in Escherichia coli BL21 (DE3) assessed as chemical shift perturbations at 100 uM by 1H-15N HSQC titration analysis
Mus musculus [13] = test: Antinociceptive activity in partial sciatic nerve ligation C57BL/6J mouse model of neuropathic pain assessed as C-fiber stimulated paw withdrawal threshold at 10 mg/kg, ip measured on day 12 (reference value: 6 microA); type: functional
Mus musculus [14] = test: Antinociceptive activity in partial sciatic nerve ligation C57BL/6J mouse model of neuropathic pain assessed as C-fiber stimulated paw withdrawal threshold at 10 mg/kg, ip measured on day 5 (reference value: 3 microA); type: functional
Mus musculus [15] = test: Antinociceptive activity in intermittent psychological stress treated partial sciatic nerve ligation C57BL/6J mouse model of fibromyalgia assessed as paw withdrawal latency time at 10 mg/kg, ip measured on day 5 (reference value: 4 sec); type: functional
Mus musculus [16] = test: Antinociceptive activity in intermittent psychological stress treated partial sciatic nerve ligation C57BL/6J mouse model of fibromyalgia assessed as reduction in central morphine analgesia at 10 mg/kg, ip administered daily from day 5 to day 11 measured on day 12; type: functional, organism-based
Mus musculus [17] = test: Antinociceptive activity in partial sciatic nerve ligation C57BL/6J mouse model of neuropathic pain assessed as reduction in C-fiber stimulated hyposensitivity at 10 mg/kg, ip administered daily from day 5 to day 11 measured on day 12; type: functional, organism-based
Mus musculus [18] = test: Antinociceptive activity in intermittent cold stress treated partial sciatic nerve ligation C57BL/6J mouse model of fibromyalgia assessed as paw withdrawal latency time at 10 mg/kg, ip measured on day 12 (reference value: 13 sec); type: functional

With CC[C@H]1ON(C(=O)OC(C)C)[C@H]2CN(CCC(C)C)C(=O)[C@H](CCSC)N2C1=O the Activity (Mus musculus [1]) was “Active”, the Time (Mus musculus [2]) was 4 s and the Time (Mus musculus [3]) was 4 s. The Activity (Mus musculus [4]) was “Active”, the inhibition [5] was “Active” and the Activity (Mus musculus [6]) was “Active”. For the same compound, the Time (Mus musculus [7]) was 3 s, the Activity (Mus musculus [8]) was “Active” and the Time (Mus musculus [9]) was 10 s. The Time (Mus musculus [10]) was 3 s, the Time (Mus musculus [11]) was 3 s and the Activity [12] was “Active”. It also gave an Activity (Mus musculus [13]) of 6 microA, an Activity (Mus musculus [14]) of 3 microA and a Time (Mus musculus [15]) of 4 s. The Activity (Mus musculus [16]) was “Active”, the Activity (Mus musculus [17]) was “Active” and the Time (Mus musculus [18]) was 13 s.

For CCCC[C@H]1C(=O)N(CCC(C)C)C[C@@H]2N(C(=O)OC(C)C)CC3(CCCCC3)C(=O)N21, the inhibition [5] was “Active”.
